# Where two headings read alike, the source gives them in different places. Bridge positions count the residues as written; N and C are the ends. Square brackets hold non-standard residues; d marks the D form. Peptide text beside a SMILES is read from it. Trp(1-Me) = Cn1cc(C[C@H](N)C(=O)O)c2ccccc21; NMeI = CC[C@H](C)[C@H](NC)C(=O)O; Sar = CNCC(=O)O
# Target: T1, C3b (Homo sapiens, UniProt P01024)
# T1 construct: the α’NT, MG6^α−8, anchor, and C-terminal complement (CTC) domains of the α-chain that are all shared between C3c and C3b; purchased Complement Technology (Tyler, TX, USA)
# Test: SPR kinetic binding studies on immobilized C3b
# Description: All compstatin analogues were characterized concerning affinity and kinetic profiles by surface plasmon resonance (SPR) using a Biacore T200 instrument (Cytiva, Piscataway, USA). Experiments were run at 25 °C in HBST buffer (10 mM HEPES, 150 mM NaCl, 0.05% Tween-20, pH 7.4). C3b was immobilized on a carboxymethyl dextran hydrogel chip (CMD200; XanTec, Düsseldorf, Germany) using standard amine coupling in sodium acetate buffer pH 4.5 at a flow rate of 10 µl/min. Immobilization densities of 8000 and 4000 resonance units (RU) were achieved on separate flow cells. A reference flow cell was activated with the same method (NHS/EDC). All active sites were inactivated and blocked with ethanolamine. A single cycle approach at a flow rate of 30 µl/min was used for kinetic analysis by injecting five increasing concentrations of each compound (0.5–40 nM) consecutively without regeneration in-between injections. Individual injections within a cycle were 120 s long with a 60 sec dissociation phase between injections. After the highest concentration of each derivative, a dissociation period of 6,000–14,400 sec was added to ensure complete dissociation in absence of suitable regeneration method. […] Signals from the reference cell from an ensemble of buffer blank injections were subtracted to correct for buffer effects and injection artefacts. Kinetic data was processed with the Biacore T200 Software (version 3.1; Cytiva) using a single-cycle evaluation setup by global fitting each data set to a 1:1 Langmuir binding model. Association and dissociation rate constants (ka and kd, respectively) were fitted, and the equilibration constant KD was calculated based on the following equation: KD = kd/ka. Each assay was performed at least twice and in duplicate injections.
# [1] = Table 1, amine-reactive immobilized C3b, 25 °C, average±SD of three independent SPR experiments, read-out: KD
# [2] = pH 7.4, read-out: ka, Dataset 1
# [3] = pH 7.4, read-out: ka, Dataset 3
# [4] = source data of Table 1, single SPR dataset 1, read-out: KD, Dataset 1
# [5] = source data of Table 1, single SPR dataset 2, read-out: KD, Dataset 2
# [6] = source data of Table 1, single SPR dataset 3, read-out: KD, Dataset 3
# [7] = pH 7.4, read-out: ka, Dataset 2
# T1 sequence (P01024 23-667 limits assumed): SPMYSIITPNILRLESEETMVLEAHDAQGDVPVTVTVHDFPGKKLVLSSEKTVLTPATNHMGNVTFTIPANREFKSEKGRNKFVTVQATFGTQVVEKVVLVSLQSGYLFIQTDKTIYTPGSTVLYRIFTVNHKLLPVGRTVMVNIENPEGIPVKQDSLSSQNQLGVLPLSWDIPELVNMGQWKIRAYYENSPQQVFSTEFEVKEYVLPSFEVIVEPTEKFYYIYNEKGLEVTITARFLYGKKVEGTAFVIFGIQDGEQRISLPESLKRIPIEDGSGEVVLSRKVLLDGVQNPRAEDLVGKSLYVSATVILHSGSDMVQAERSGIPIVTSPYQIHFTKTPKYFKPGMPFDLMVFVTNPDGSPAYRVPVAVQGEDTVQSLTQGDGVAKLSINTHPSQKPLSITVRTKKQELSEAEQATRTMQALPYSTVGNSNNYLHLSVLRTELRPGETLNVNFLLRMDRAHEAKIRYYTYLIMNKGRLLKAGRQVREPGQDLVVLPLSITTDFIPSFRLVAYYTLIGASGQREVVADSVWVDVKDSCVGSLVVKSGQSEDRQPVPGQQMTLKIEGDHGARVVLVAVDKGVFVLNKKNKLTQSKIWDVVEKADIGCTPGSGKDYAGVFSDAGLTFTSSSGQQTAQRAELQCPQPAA
# T1 sequence (P01024 749-1663 limits assumed): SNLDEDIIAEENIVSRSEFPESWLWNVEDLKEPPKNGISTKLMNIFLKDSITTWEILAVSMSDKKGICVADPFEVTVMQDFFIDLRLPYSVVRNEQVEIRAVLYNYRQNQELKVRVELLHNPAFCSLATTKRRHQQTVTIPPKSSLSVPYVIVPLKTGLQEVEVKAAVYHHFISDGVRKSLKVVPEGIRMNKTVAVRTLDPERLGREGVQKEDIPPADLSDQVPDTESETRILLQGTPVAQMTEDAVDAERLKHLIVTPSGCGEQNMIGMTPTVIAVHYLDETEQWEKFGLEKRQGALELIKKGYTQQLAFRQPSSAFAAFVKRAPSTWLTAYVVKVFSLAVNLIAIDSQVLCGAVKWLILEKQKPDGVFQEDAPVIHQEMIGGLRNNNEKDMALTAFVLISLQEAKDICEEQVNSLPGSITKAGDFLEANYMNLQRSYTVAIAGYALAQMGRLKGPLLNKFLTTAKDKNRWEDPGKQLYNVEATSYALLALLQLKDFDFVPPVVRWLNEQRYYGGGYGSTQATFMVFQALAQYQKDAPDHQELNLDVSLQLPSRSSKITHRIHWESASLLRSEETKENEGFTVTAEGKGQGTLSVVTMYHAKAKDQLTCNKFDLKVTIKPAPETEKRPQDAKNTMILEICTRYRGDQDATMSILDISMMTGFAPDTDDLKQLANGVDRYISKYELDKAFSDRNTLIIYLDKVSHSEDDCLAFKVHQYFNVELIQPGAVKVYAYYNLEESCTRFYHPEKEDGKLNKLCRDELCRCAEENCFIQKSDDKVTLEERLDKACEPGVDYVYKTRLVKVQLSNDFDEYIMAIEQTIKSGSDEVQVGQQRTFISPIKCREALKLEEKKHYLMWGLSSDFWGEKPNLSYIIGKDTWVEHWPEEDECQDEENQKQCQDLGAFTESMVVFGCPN
Kd [1] [nM],"kon (pH 7.4, read-out: ka) [M⁻¹ s⁻¹]",kon [2] [M⁻¹ s⁻¹],kon [3] [M⁻¹ s⁻¹],Kd [4] [nM],Kd [5] [nM],Kd [6] [nM],"kd (Table 1, amine-reactive immobilized C3b, 25 °C, average±SD of three independent SPR experiments)",kon [7] [M⁻¹ s⁻¹],"kd, Dataset 1 (source data of Table 1, single SPR dataset 1)","kd, Dataset 2 (source data of Table 1, single SPR dataset 2)","kd, Dataset 3 (source data of Table 1, single SPR dataset 3)",Structure (SMILES)
3.8 ± 0.5,400000,470000,290000,4.11,4.27,3.1,,,,,,CC[C@H](C)[C@H](NC(=O)[C@H](C)N)C(=O)N[C@H]1CSSC[C@@H](C(=O)N(C)[C@H](C(N)=O)[C@@H](C)CC)NC(=O)[C@H](CCCNC(=N)N)NC(=O)[C@H](Cc2c[nH]cn2)NC(=O)[C@H](C)NC(=O)CN(C)C(=O)[C@H](Cc2c[nH]c3ccccc23)NC(=O)[C@H](CC(=O)O)NC(=O)[C@H](CCC(N)=O)NC(=O)[C@H](Cc2cn(C)c3ccccc23)NC(=O)[C@H](C(C)C)NC1=O [Cp40 y1A] (H-AICV[Trp(1-Me)]QDW[Sar]AHRC[NMeI]-NH2; disulfide 3-13)
2.9 ± 0.6,800000 ± 100000,840000,650000,2.19,2.99,3.63,2.3 ± 0.4 10^−3 s^−1,920000,1.85 10-3 s-1,2.77 10-3 s-1,2.36 10-3 s-1,CC[C@H](C)[C@H](NC(=O)[C@@H](C)N)C(=O)N[C@H]1CSSC[C@@H](C(=O)N(C)[C@H](C(N)=O)[C@@H](C)CC)NC(=O)[C@H](CCCNC(=N)N)NC(=O)[C@H](Cc2c[nH]cn2)NC(=O)[C@H](C)NC(=O)CN(C)C(=O)[C@H](Cc2c[nH]c3ccccc23)NC(=O)[C@H](CC(=O)O)NC(=O)[C@H](CCC(N)=O)NC(=O)[C@H](Cc2cn(C)c3ccccc23)NC(=O)[C@H](C(C)C)NC1=O [Cp40 y1a]
,1.5e+06 ± 200000,1.41e+06,1.8e+06,,,,,1.28e+06,,,,CC[C@H](C)[C@H](NC(=O)[C@H](N)Cc1ccc(O)cc1)C(=O)N[C@H]1CSSC[C@@H](C(N)=O)NC(=O)[C@H](CCCNC(=N)N)NC(=O)[C@H](Cc2c[nH]cn2)NC(=O)[C@H](C)NC(=O)CN(C)C(=O)[C@H](Cc2c[nH]c3ccccc23)NC(=O)[C@H](CC(=O)O)NC(=O)[C@H](CCC(N)=O)NC(=O)[C@H](Cc2cn(C)c3ccccc23)NC(=O)[C@H](C(C)C)NC1=O [Cp40 ΔmI14] (H-[dY]ICV[Trp(1-Me)]QDW[Sar]AHRC-NH2; disulfide 3-13)
